According to patent US10617622B2, “Hair restoration and/or hair growth promoting composition containing soyasaponin” (AMOREPACIFIC CORPORATION, priority 2015, dated 2020):

Columns and labels:
[1] = tested on: dermal papilla cells (DPC); assay: Expression of hair growth factor VEGF in dermal papilla cells (VEGF ELISA); type: cell-based, human; conditions: 20 ppm, 24 hours
Description: In order to evaluate the degree of expression of vascular endothelial growth factor (VEGF) which is a growth factor necessary for transition of hair into the anagen phase as a growth factor necessary for angiogenesis by soyasaponin Aa, an in vitro system was applied to treat the soyasaponin Aa, and the activity thereof was evaluated. For the experiment, 4×10^5 dermal papilla cells (DPC) (P.11) of a person was seeded in a 12-well plate and cultured in DMEM (Dulbecco's modified Eagle's medium; GibcoBRL, Gaithersburg, Md., USA) containing 10% FBS (fetal bovine serum) overnight. After the culture, the cells were treated with soyasaponin Aa at 20 ppm. DMSO was used as a negative control. After 24 hours, the mixing solution with treated soyasaponin Aa was collected, and the degree of VEGF expression by the soyasaponin Aa was confirmed using VEGF ELISA (Vascular endothelial growth factor Enzyme-Linked Immunosorbent Assay; R&D biosystems).

[2] = tested on: human dermal papilla cell line; assay: Proliferation effect on hair follicle dermal papilla cells (WST-1 kit); type: cell-based; conditions: for hDPc proliferation (%): 24 hours after treatment, control = 100
Description: First, in the present invention, a human dermal papilla cell line was used (obtained from Prof. Kwan Oh Sang of dermatology in Seoul National University Hospital). The cell line was cultured for 24 hours in an incubator maintained at 5% CO2, 37° C. using DMEM (Dulbecco's modified Eagle's medium; Gibco BRL, Gaithersburg, Md., USA) containing 10% FBS, and then independently treated with soyasaponin Aa at 1 ppm, 10 ppm, and 20 ppm. DMSO was used as a negative control. Cell proliferation (%) was measured using a WST-1 kit (Roche) 24 hours after the treatment with the test materials.

[3] = tested on: human hair follicle organ; assay: Hair growth promoting effect using human hair follicle organ culture; type: cell-based; conditions: for Average growth length (mm): 8 days after the treatment, hair follicles of a person
Description: The hair follicle organ was isolated from the scalp tissue of the occipital region of a person one at a time, and cultured in William's E medium (containing L-glutamine (2 mM), insulin (10 μg/ml), hydrocortisone (40 ng/ml), antibiotics (1%) antimycotic (1%)).
The hair follicles grown on the third day after culturing were selected and cut into 3 mm. As for the selected hair follicle tissues, those without drug treatment were used as a control group, and the hair follicle tissues were each treated with soyasaponin Aa at 1 ppm, 5 ppm, and 10 ppm. Then, the hair length was measured 8 days after the treatment.

Question: `CC(=O)O[C@@H]1[C@@H](OC(C)=O)[C@H](O[C@@H]2[C@@H](O)[C@H](O[C@@H]3[C@H](O)C(C)(C)C[C@H]4C5=CC[C@@H]6[C@@]7(C)CC[C@H](O[C@@H]8O[C@H](C(=O)O)[C@@H](O)[C@H](O)[C@H]8O[C@@H]8O[C@H](CO)[C@H](O)[C@H](O)[C@H]8O[C@@H]8O[C@H](CO)[C@@H](O)[C@H](O)[C@H]8O)[C@](C)(CO)[C@@H]7CC[C@@]6(C)[C@]5(C)CC[C@@]34C)OC[C@@H]2O)OC[C@H]1OC(C)=O` [Soyasaponin Aa, soyasaponin Aa] was tested. Which “increase of VEGF expression compared to the control group” value ([1]; dermal papilla cells) did it give?
Answer: ≥ 4 times

Question: What about the “VEGF (ng/ml) in culture medium” value ([1]; dermal papilla cells of a person, DMSO negative control) of the same compound?
Answer: 16.7 ng/mL

Question: What about the “hDPc proliferation (%)” value ([2]; 1 ppm) of the same compound?
Answer: 119%

Question: What about the “hDPc proliferation (%)” value ([2]; 10 ppm) of the same compound?
Answer: 145%

Question: What about the “rate of increase in dermal papilla cell proliferation compared with the control group” value ([2]; 20 ppm) of the same compound?
Answer: ≥ 1.7 times

Question: What about the “hDPc proliferation (%)” value ([2]; 20 ppm) of the same compound?
Answer: 172%

Question: And the “Average growth length (mm)” value ([3]; 1 ppm)?
Answer: 1.71 mm

Question: And the “Average growth length (mm)” value ([3]; 5 ppm)?
Answer: 2.05 mm

Question: And the “hair length growth effect compared to the control group” value ([3]; 10 ppm)?
Answer: 1.5 times

Question: What about the “Average growth length (mm)” value ([3]; 10 ppm) of the same compound?
Answer: 2.46 mm
